# Assay results reported in patent US7001608B2, “Artificial synapse chip interface for electronic prosthetic retina” (The Board of Trustees of the Lealand Stanford Junior …, priority 2001, dated 2006).
# Experiment: Gramicidin D conductance change in lipid bilayer across silicon nitride aperture
# Format: biochemical
# Settings: 5 to 20 μl of 2 mg/ml gD in ethanol to each bath; within minutes; capacitance remained constant; ethanol alone no effect
# Description: Lipid bilayers were formed by the method of Montal and Mueller (1972). In practicing the Langmuir-Blodgett technique, one raises two lipid monolayers across an aperture, allowing the lipids to align their hydrophobic tail portions across the aperture so as to form a lipid bilayer. Because of the hydrophobic nature of the lipid tails, in order to form stable bilayers the surface of a BSP must also be hydrophobic. If the substrate is hydrophobic, the lipids can smoothly transition from coating the substrate to spanning the aperture. To reverse the wetting properties of the naturally hydrophilic silicon nitride, the silicon nitride was coated with an alkylsilane (octyltrichlorosilane). Application of this coating was quite simple and very effective. It was not found to be possible to form a bilayer with untreated devices. Use of longer carbon chain silanes or alternative materials to make the surface even more hydrophobic would further increase bilayer stability.
# For smaller apertures, it was more difficult to observe the capacitance change over the background. In this case, membrane-bound proteins that affect the electrical properties of the bilayer, such as carriers and ion channels, offered the best proof of the formation of a bilayer. The ion channel peptide Gramicidin D (gD), was chosen for ease of use and large conductance change. […]
substance,measurement,value
Gramicidin D [gD],conductance of the bilayer,dramatically increased
